Earlier results on 32 compounds are cited in US20070213354A1, “Compositions and Methods for the Treatment of Multiple Sclerosis” (AmpliMed Corporation, priority 2006, published 2007).

For orientation: IC50 means the concentration needed to halve the response being measured.

One series deals with neonatal rat myocytes. To be noted: 1 hour drug concentration that reduces ATP/protein ratio to 50% of untreated control myocytes; read-out: IC50 Cardiotox; cited from earlier work.
The next series deals with L1210 sensitive. Particulars: murine leukemia L1210 sensitive to standard cytotoxic agents; MTT, continuous exposure; cited from earlier work.
The subject of the next series is L1210 resistant. Particulars: murine leukemia L1210 resistant, P-glycoprotein producing; MTT, continuous exposure; cited from earlier work.

SMILES strings stand for the structures. Some results are limits rather than exact numbers.

Take `COc1ccc2c3c4c(cccc4cc2c1)C(=O)N(CCN(C)C)C3=O` [*9-OCH3]: the results for the IC50 with neonatal rat myocytes, in the series with L1210 sensitive and with L1210 resistant were less than 2600 nM, 54 nM and 54 nM, respectively.

As to `CN(C)CCN1C(=O)c2cc(N)cc3cc4ccccc4c(c23)C1=O` [*5-NH2], the half-inhibitory concentration (IC50) with neonatal rat myocytes is 1720 nM; in the series with L1210 sensitive, 6 nM; with L1210 resistant it was 15 nM.

Turning to `CN(C)CCN1C(=O)c2cccc3cc4cc(O)ccc4c(c23)C1=O` [*9-OH], the IC50 with neonatal rat myocytes is 404 nM; in the series with L1210 sensitive it was 5 nM; with L1210 resistant, 7 nM.

Take `CN(C)CCN1C(=O)c2c(NC(=O)C(C)(C)C)ccc3cc4ccccc4c(c23)C1=O` [*4-NHCOC(CH3)3]: the concentration for half-maximal inhibition (IC50) in the series with neonatal rat myocytes was more than 24600 nM; in the series with L1210 sensitive, 862 nM; in the series on L1210 resistant, 172 nM.

Consider `CN(C)CCN1C(=O)c2cccc3cc4ccc(Cl)cc4c(c23)C1=O` [*10-Cl], for which the values for the IC50 in the series with neonatal rat myocytes, with L1210 sensitive and in the series on L1210 resistant were 771 nM, 5 nM and 8 nM, respectively.

On to `CN(C)CCNc1c2ccccc2c2c3c(cccc13)C(=O)N(CCN(C)C)C2=O` [*7-NH(CH2)2N(CH3)2], for which the results for the IC50 in the series on neonatal rat myocytes, in the series on L1210 sensitive and in the series on L1210 resistant were 291000 nM, 524 nM and 524 nM, respectively.

Consider `O=C1c2cccc3cc4ccccc4c(c23)C(=O)N1Cc1cccnc1` [2-CH2-3-pyridyl], for which the figures for the IC50 with neonatal rat myocytes, in the series on L1210 sensitive and in the series with L1210 resistant were more than 25000 nM, 1870 nM and 2670 nM, respectively.

Regarding `CN(C)CCN1C(=O)c2cccc3cc4ccc(C#N)cc4c(c23)C1=O` [*10-CN], the IC50 was 105 nM in the series with neonatal rat myocytes, 15 nM in the series on L1210 sensitive and 13 nM with L1210 resistant.

On to `COc1ccc2c3c(c4ccccc4cc13)C(=O)N(CCN(C)C)C2=O` [*6-OCH3], for which the IC50 in the series with neonatal rat myocytes was 799 nM; in the series on L1210 sensitive, 3 nM; in the series on L1210 resistant, 4 nM.

For `CC(=O)Nc1ccc2c3c4c(cccc4cc2c1)C(=O)N(CCN(C)C)C3=O` [*9-NHCOCH3], the IC50 in the series with neonatal rat myocytes was 487 nM; in the series on L1210 sensitive it was 114 nM; in the series on L1210 resistant, 170 nM.

For `CN(C)CCN1C(=O)c2cccc3cc4ccc(NC(=O)C(C)(C)C)cc4c(c23)C1=O` [*10-NHCOC(CH3)3], the IC50 with neonatal rat myocytes was 11000 nM; in the series on L1210 sensitive, 200 nM; in the series on L1210 resistant, 200 nM.

For `CSc1c2ccccc2c2c3c(cccc13)C(=O)N(CCN(C)C)C2=O` [*7-SCH3], the half-maximal inhibitory concentration (IC50) in the series with neonatal rat myocytes was more than 50000 nM; with L1210 sensitive, 6250 nM; in the series with L1210 resistant, 1220 nM.

Take `O=C1c2cccc3cc4ccccc4c(c23)C(=O)N1CCN1CCCCC1` [2-(CH2)2N(CH2)5]: the IC50 with neonatal rat myocytes was 10400 nM; with L1210 sensitive it was 51 nM; in the series with L1210 resistant it was 51 nM.

Take `CC(=O)Nc1cccc2c3c4c(cccc4cc12)C(=O)N(CCN(C)C)C3=O` [*8-NHCOCH3]: the results for the IC50 in the series with neonatal rat myocytes, in the series on L1210 sensitive and in the series with L1210 resistant were 12100 nM, 485 nM and 510 nM, respectively.

As for `CN(C)CCN1C(=O)c2cccc3cc4ccc(I)cc4c(c23)C1=O` [*10-I], the results for the IC50 in the series on neonatal rat myocytes, with L1210 sensitive and in the series on L1210 resistant were 4790 nM, 312 nM and 52 nM, respectively.

Consider `CN(C)CCN1C(=O)c2cccc3cc4cccc(N)c4c(c23)C1=O` [*11-NH2], for which the IC50 in the series on neonatal rat myocytes was 27100 nM; in the series with L1210 sensitive it was 678 nM; with L1210 resistant, 678 nM.

In the case of `CN(C)CCN1C(=O)c2cccc3cc4c(O)cccc4c(c23)C1=O` [*8-OH], the IC50 with neonatal rat myocytes was 2950 nM; with L1210 sensitive, 108 nM; in the series on L1210 resistant, 67 nM.

In the case of `CC(=O)Nc1c2ccccc2c2c3c(cccc13)C(=O)N(CCN(C)C)C2=O` [*7-NHCOCH3], the 50% inhibitory concentration (IC50) with neonatal rat myocytes is more than 23600 nM; with L1210 sensitive, 487 nM; with L1210 resistant it was 487 nM.

Regarding `CCOc1ccc2cc3cccc4c3c(c2c1)C(=O)N(CCN(C)C)C4=O` [*10-OC2H5], the half-inhibitory concentration (IC50) with neonatal rat myocytes was 11300 nM; with L1210 sensitive it was 25 nM; with L1210 resistant, 50 nM.

Take `CN(C)CCN1C(=O)c2cccc3cc4c([N+](=O)[O-])cccc4c(c23)C1=O` [*8-NO2]: the values for the IC50 in the series on neonatal rat myocytes, with L1210 sensitive and with L1210 resistant were 650 nM, 50 nM and 20 nM, respectively.

As for `CN(C)CCN1C(=O)c2cccc3cc4ccc([N+](=O)[O-])cc4c(c23)C1=O` [*10-NO2], the half-inhibitory concentration (IC50) in the series with neonatal rat myocytes was 801 nM; with L1210 sensitive, 25 nM; in the series with L1210 resistant it was 25 nM.

In the case of `CN(C)CCN1C(=O)c2cc(NC(=O)C(C)(C)C)cc3cc4ccccc4c(c23)C1=O` [*5-NHCOC(CH3)3], the values for the IC50 in the series with neonatal rat myocytes, with L1210 sensitive and in the series on L1210 resistant were 662 nM, 44 nM and 15 nM, respectively.

For the compound `CN(C)CCN1C(=O)c2ccc(N(C)C)c3cc4ccccc4c(c23)C1=O` [*6-N(CH3)2], the IC50 with neonatal rat myocytes was 46600 nM; in the series with L1210 sensitive, 23 nM; with L1210 resistant, 96 nM.

As to `CN(C)CCN1C(=O)c2cccc3c(Cl)c4ccccc4c(c23)C1=O` [*7-Cl], the IC50 in the series with neonatal rat myocytes is 10800 nM; with L1210 sensitive it was 154 nM; in the series with L1210 resistant, 206 nM.

With `CCc1ccc2c3c(c4ccccc4cc13)C(=O)N(CCN(C)C)C2=O` [*6-C2H5], the figures for the half-maximal inhibitory concentration (IC50) in the series on neonatal rat myocytes, with L1210 sensitive and in the series on L1210 resistant were 7830 nM, 183 nM and 235 nM, respectively.

Take `CN(C)CCN1C(=O)c2cccc3cc4cccc(O)c4c(c23)C1=O` [*11-OH]: the IC50 in the series with neonatal rat myocytes was 15400 nM; in the series on L1210 sensitive, 189 nM; in the series on L1210 resistant it was 189 nM.

On to `CN(C)CCN1C(=O)c2ccc(NCCO)c3cc4ccccc4c(c23)C1=O` [*6-NH(CH2)2OH], for which the concentration for half-maximal inhibition (IC50) is 1210 nM in the series with neonatal rat myocytes, 6 nM in the series with L1210 sensitive and 48 nM in the series on L1210 resistant.

`CN(C)CCN1C(=O)c2cccc3cc4cccc(Cl)c4c(c23)C1=O` [*11-Cl]: the IC50 with neonatal rat myocytes was 8230 nM; with L1210 sensitive it was 1780 nM; in the series on L1210 resistant, 617 nM.

As for `CC(=O)Nc1cc2c3c(c4ccccc4cc3c1)C(=O)N(CCN(C)C)C2=O` [*5-NHCOCH3], the half-maximal inhibitory concentration (IC50) was 177 nM in the series with neonatal rat myocytes, 19 nM in the series with L1210 sensitive and 73 nM with L1210 resistant.

For the compound `CN(C)CCN1C(=O)c2ccc(I)c3cc4ccccc4c(c23)C1=O` [*6-I], the IC50 in the series on neonatal rat myocytes is 43700 nM; with L1210 sensitive, 416 nM; in the series on L1210 resistant it was 416 nM.

In the case of `O=C1c2cccc3cc4ccccc4c(c23)C(=O)N1CCCN(CCO)CCO` [2-(CH2)3N(CH2CH2OH)2], the values for the IC50 with neonatal rat myocytes, in the series with L1210 sensitive and with L1210 resistant were 8910 nM, 76 nM and 142 nM, respectively.

Regarding `CN(C)CCN1C(=O)c2cccc3cc4c(N)cccc4c(c23)C1=O` [*8-NH2], the half-inhibitory concentration (IC50) in the series with neonatal rat myocytes was more than 81300 nM; with L1210 sensitive, 6780 nM; with L1210 resistant, 6780 nM.
